# Where two headings read alike, the source gives them in different places.
# Test system: cancer cell lines from the cancer cell line encyclopedia (CCLE)
# Assay: Cell line profiling (CLiP) proliferation experiment
# Assay type: cell-based
# Set-up: key to Compound Activity (1-inactive;2-active): 1-inactive; 2-active; ACTIVITY_AREA: scale not given here; AMAX: unit not given here
# Conditions: for IC50: read-out: Crossing Point; for EC50: read-out: Inflection Point
# Method: Compound profiling experiment and data analysis was performed as previously described. Data was imported and plotted using the Tibco Spotfire DXP application. Lines were categorized as sensitive, intermediate and refractory as follows: Amax<-40 & Inflection Point <2 ~ Sensitive, Amax>-20 & Inflection Point >10 ~ Refractory, all else were called Intermediate. Cancer Cell line HG-U133 Plus 2 data was processed and normalized as described. […] Five sets of refractory cell lines were generated from the pool of refractory cell lines trying to match the lineage composition of the set of sensitive cell lines. The limma package was used as previously described to perform the statistical comparison.
# [1] = cell line GA-10, haematopoietic_and_lymphoid_tissue
# [2] = cell line GAMG, central_nervous_system
# [3] = cell line GI-1 (central_nervous_system, gliosarcoma)
# [4] = cell line GI-1, central_nervous_system
# [5] = cell line GMS-10, central_nervous_system
# [6] = cell line GOS-3 (central_nervous_system, astrocytoma)
# [7] = cell line GOS-3, central_nervous_system
# [8] = cell line GP2d, large_intestine
# [9] = cell line GRANTA-519, haematopoietic_and_lymphoid_tissue
# [10] = cell line H4, central_nervous_system
# [11] = cell line HARA (lung, squamous_cell_carcinoma)
# [12] = cell line HH, haematopoietic_and_lymphoid_tissue
# [13] = cell line Hs 611.T, haematopoietic_and_lymphoid_tissue
# [14] = cell line MCAS (ovary, mucinous_carcinoma)
# [15] = cell line MOG-G-UVW (central_nervous_system)
# [16] = cell line NB-1 (autonomic_ganglia)
# [17] = cell line NB-4 (haematopoietic_and_lymphoid_tissue)
# [18] = cell line SNU-119, ovary, adenocarcinoma
# [19] = cell line SNU-626 (central_nervous_system, astrocytoma_Grade_IV)
# [20] = cell line SNU-1079, biliary_tract
structure (smiles),measurement,setting,value
CC(C)[C@@]12C[C@@H](O)[C@@](C)(O1)[C@@H]1CC[C@@H](C)[C@H]1[C@@H]2OC(=O)/C=C/c1ccccc1 [Englerin B],ACTIVITY_AREA,[1],28.18
same,AMAX,[1],8.5
same,RESPONSE,[1],REFRACTORY
same,ACTIVITY_AREA,[2],50.48
same,AMAX,[2],-45.21
same,RESPONSE,[2],INTERMEDIATE
same,ACTIVITY_AREA,"cell line GCIY, stomach",49.94
same,AMAX,"cell line GCIY, stomach",-70.92
same,RESPONSE,"cell line GCIY, stomach",INTERMEDIATE
same,Compound Activity (1-inactive;2-active),"cell line GCT (soft_tissue, NS)",1
same,ACTIVITY_AREA,"cell line GCT, soft_tissue",17.95
same,AMAX,"cell line GCT, soft_tissue",-52.9
same,RESPONSE,"cell line GCT, soft_tissue",INTERMEDIATE
same,IC50,"cell line GCT, soft_tissue",27.1 µM
same,EC50,"cell line GCT, soft_tissue",16.4 µM
same,Compound Activity (1-inactive;2-active),[3],1
same,IC50,[3],> 30 µM
same,ACTIVITY_AREA,[4],112.12
same,AMAX,[4],-25.87
same,RESPONSE,[4],INTERMEDIATE
same,IC50,[4],> 30 µM
same,ACTIVITY_AREA,[5],21.47
same,AMAX,[5],-32.03
same,RESPONSE,[5],INTERMEDIATE
same,Compound Activity (1-inactive;2-active),[6],1
same,IC50,[6],> 30 µM
same,ACTIVITY_AREA,[7],26.28
same,AMAX,[7],-31.04
same,RESPONSE,[7],INTERMEDIATE
same,IC50,[7],> 30 µM
same,ACTIVITY_AREA,[8],32.63
same,AMAX,[8],-48.04
same,RESPONSE,[8],INTERMEDIATE
same,ACTIVITY_AREA,"cell line GR-M, skin",48.68
same,AMAX,"cell line GR-M, skin",-36.64
same,RESPONSE,"cell line GR-M, skin",INTERMEDIATE
same,IC50,"cell line GR-M, skin",> 30 µM
same,IC50,cell line GR-M,> 30 µM
same,ACTIVITY_AREA,[9],14.82
same,AMAX,[9],16.83
same,RESPONSE,[9],REFRACTORY
same,ACTIVITY_AREA,[10],16.33
same,AMAX,[10],-3.42
same,RESPONSE,[10],REFRACTORY
same,IC50,[10],> 30 µM
same,IC50,cell line H4,> 30 µM
same,Compound Activity (1-inactive;2-active),[11],1
same,IC50,[11],15.9 µM
same,ACTIVITY_AREA,"cell line HARA, lung",73.57
same,AMAX,"cell line HARA, lung",-72.32
same,RESPONSE,"cell line HARA, lung",INTERMEDIATE
same,IC50,"cell line HARA, lung",15.9 µM
same,Compound Activity (1-inactive;2-active),"cell line HCC-15 (lung, squamous_cell_carcinoma)",1
same,ACTIVITY_AREA,"cell line HCC-15, lung",57.49
same,AMAX,"cell line HCC-15, lung",-70.57
same,RESPONSE,"cell line HCC-15, lung",INTERMEDIATE
same,Compound Activity (1-inactive;2-active),"cell line HCC-44 (lung, adenocarcinoma)",1
same,RESPONSE,"cell line HCC-44, lung",INTERMEDIATE
same,RESPONSE,"cell line HCC-366, lung",REFRACTORY
same,Compound Activity (1-inactive;2-active),"cell line HCC-1171 (lung, non_small_cell_carcinoma)",1
same,ACTIVITY_AREA,"cell line HCC-1171, lung",53.16
same,AMAX,"cell line HCC-1171, lung",-52.03
same,RESPONSE,"cell line HCC-1171, lung",INTERMEDIATE
same,IC50,"cell line HEC-59, endometrium",19.1 µM
same,IC50,"cell line HEC-151, endometrium",16.5 µM
same,IC50,"cell line HEC-265, endometrium",27.1 µM
same,EC50,"cell line HEC-265, endometrium",27.1 µM
same,Compound Activity (1-inactive;2-active),"cell line HEL 92.1.7 (haematopoietic_and_lymphoid_tissue, acute_myeloid_leukaemia)",1
same,IC50,[12],10.1 µM
same,EC50,[12],9.47 µM
same,IC50,"cell line HLC-1, lung",> 30 µM
same,IC50,cell line HLC-1,> 30 µM
same,IC50,"cell line HLF, liver",> 30 µM
same,EC50,"cell line HLF, liver",16.8 µM
same,IC50,cell line HLF,> 30 µM
same,IC50,"cell line HMC-1-8, breast",29.7 µM
same,Compound Activity (1-inactive;2-active),"cell line HPB-ALL (haematopoietic_and_lymphoid_tissue, acute_lymphoblastic_T_cell_leukaemia)",1
same,IC50,"cell line HT, haematopoietic_and_lymphoid_tissue",> 30 µM
same,IC50,cell line HT,> 30 µM
same,IC50,"cell line HTK-, haematopoietic_and_lymphoid_tissue",28.6 µM
same,IC50,"cell line Hs 571.T, ovary",19.6 µM
same,EC50,"cell line Hs 571.T, ovary",19.6 µM
same,IC50,[13],20.9 µM
same,EC50,[13],20.9 µM
same,IC50,"cell line Hs 729, soft_tissue",> 30 µM
same,IC50,cell line Hs 729,> 30 µM
same,IC50,"cell line Hs 936.T, skin",> 30 µM
same,EC50,"cell line Hs 936.T, skin",7.96 µM
same,IC50,cell line Hs 936.T,> 30 µM
same,IC50,"cell line Hs 939.T, skin",> 30 µM
same,IC50,cell line Hs 939.T,> 30 µM
same,IC50,"cell line Hs 940.T, skin",> 30 µM
same,IC50,"cell line Hs 944.T, skin",20.6 µM
same,EC50,"cell line Hs 944.T, skin",17.1 µM
same,IC50,"cell line HuG1-N, stomach",10.9 µM
same,IC50,cell line J82,> 30 µM
same,IC50,cell line KLE,> 30 µM
same,Compound Activity (1-inactive;2-active),"cell line Loucy (haematopoietic_and_lymphoid_tissue, acute_lymphoblastic_T_cell_leukaemia)",1
same,Compound Activity (1-inactive;2-active),"cell line MC116 (haematopoietic_and_lymphoid_tissue, B_cell_lymphoma_unspecified)",1
same,Compound Activity (1-inactive;2-active),[14],1
same,IC50,[14],> 30 µM
same,Compound Activity (1-inactive;2-active),"cell line MDA-MB-231 (breast, NS)",1
same,Compound Activity (1-inactive;2-active),"cell line MDA-MB-453 (breast, NS)",1
same,Compound Activity (1-inactive;2-active),"cell line MEC-1 (haematopoietic_and_lymphoid_tissue, chronic_lymphocytic_leukaemia-small_lymphocytic_lymphoma)",1
same,IC50,cell line MEL-HO (skin),> 30 µM
same,IC50,cell line MEL-HO,> 30 µM
same,IC50,cell line MHH-NB-11 (autonomic_ganglia),26.9 µM
same,IC50,cell line MJ (haematopoietic_and_lymphoid_tissue),9.13 µM
same,IC50,[15],> 30 µM
same,EC50,[15],10.2 µM
same,IC50,cell line MOG-G-UVW,> 30 µM
same,Compound Activity (1-inactive;2-active),"cell line MOLT-16 (haematopoietic_and_lymphoid_tissue, acute_lymphoblastic_T_cell_leukaemia)",1
same,Compound Activity (1-inactive;2-active),"cell line MONO-MAC-6 (haematopoietic_and_lymphoid_tissue, acute_myeloid_leukaemia)",1
same,IC50,cell line MOR/CPR (lung),28.3 µM
same,EC50,cell line MOR/CPR (lung),12.9 µM
same,EC50,cell line MOR/CPR,12.9 µM
same,Compound Activity (1-inactive;2-active),"cell line MeWo (skin, NS)",1
same,IC50,cell line Mel285 (eye),> 30 µM
same,EC50,cell line Mel285 (eye),13.8 µM
same,IC50,cell line Mel285,> 30 µM
same,IC50,[16],22.3 µM
same,EC50,[16],22.3 µM
same,IC50,[17],18.5 µM
same,EC50,[17],11.5 µM
same,Compound Activity (1-inactive;2-active),"cell line NCI-H1048 (lung, small_cell_carcinoma)",1
same,Compound Activity (1-inactive;2-active),"cell line NCI-H1299 (lung, non_small_cell_carcinoma)",1
same,IC50,cell line NCI-H1341 (lung),15 µM
same,EC50,cell line NCI-H1341 (lung),15 µM
same,Compound Activity (1-inactive;2-active),"cell line NCI-H1355 (lung, adenocarcinoma)",1
same,Compound Activity (1-inactive;2-active),"cell line NCI-H1792 (lung, adenocarcinoma)",1
same,Compound Activity (1-inactive;2-active),"cell line NCI-H2073 (lung, adenocarcinoma)",1
same,IC50,cell line NCI-H2106,> 30 µM
same,IC50,cell line NCI-H2330,> 30 µM
same,IC50,cell line OC 316,> 30 µM
same,IC50,cell line OMM2.3,> 30 µM
same,EC50,cell line OMM2.3,13.6 µM
same,IC50,cell line OMM2.5,> 30 µM
same,IC50,cell line OV7,> 30 µM
same,IC50,cell line OVISE,17.9 µM
same,IC50,cell line PC-3,25.9 µM
same,IC50,cell line PE/CA-PJ41 (clone D2),25.8 µM
same,IC50,cell line PEER,13.5 µM
same,IC50,cell line RCC10RGB,> 30 µM
same,IC50,cell line RCH-ACV,15.6 µM
same,EC50,cell line RCH-ACV,12.1 µM
same,IC50,cell line RD,> 30 µM
same,IC50,cell line RERF-LC-AI,> 30 µM
same,EC50,cell line RERF-LC-AI,17.9 µM
same,IC50,cell line RI-1,9.99 µM
same,EC50,cell line RI-1,9.99 µM
same,IC50,cell line RKN,> 30 µM
same,IC50,cell line RKO,14.7 µM
same,EC50,cell line RKO,13.1 µM
same,IC50,cell line RL,12.5 µM
same,EC50,cell line RL,11.8 µM
same,IC50,cell line RMUG-S,> 30 µM
same,IC50,cell line Reh,21.5 µM
same,EC50,cell line Reh,21.5 µM
same,IC50,"cell line SEM, haematopoietic_and_lymphoid_tissue, acute_lymphoblastic_B_cell_leukaemia",14.2 µM
same,Compound Activity (1-inactive;2-active),"cell line SF-295 (central_nervous_system, astrocytoma_Grade_IV)",1
same,IC50,"cell line SH-4, skin",> 30 µM
same,Compound Activity (1-inactive;2-active),"cell line SK-N-SH (autonomic_ganglia, NS)",1
same,IC50,"cell line SNG-M, endometrium, adenocarcinoma",> 30 µM
same,IC50,[18],> 30 µM
same,EC50,[18],27.2 µM
same,Compound Activity (1-inactive;2-active),"cell line SNU-475 (liver, hepatocellular_carcinoma)",1
same,Compound Activity (1-inactive;2-active),[19],1
same,IC50,[19],> 30 µM
same,IC50,"cell line SNU-626, central_nervous_system, astrocytoma_Grade_IV",> 30 µM
same,IC50,"cell line SNU-738, central_nervous_system, oligodendroglioma",> 30 µM
same,IC50,[20],25.7 µM
same,EC50,[20],25.7 µM
same,Compound Activity (1-inactive;2-active),"cell line SW48 (large_intestine, adenocarcinoma)",1
same,Compound Activity (1-inactive;2-active),"cell line SW 1783 (central_nervous_system, astrocytoma_Grade_III)",1
same,Compound Activity (1-inactive;2-active),"cell line THP-1 (haematopoietic_and_lymphoid_tissue, acute_myeloid_leukaemia)",1
same,Compound Activity (1-inactive;2-active),compound-level call,1
same,Compound Activity (1-inactive;2-active),compound-level call printed on every cell line row,1
same,Compound Activity (1-inactive;2-active),"compound-level call, the same on every cell line's row",1
same,Compound Activity (1-inactive;2-active),compound-level flag,1
same,Compound Activity (1-inactive;2-active),compound-level flag repeated on every cell line row,1
same,Compound Activity (1-inactive;2-active),"compound-level flag, printed on every cell line row",1
same,Compound Activity (1-inactive;2-active),flag of the compound,1
same,Compound Activity (1-inactive;2-active),overall call per compound,1
same,Compound Activity (1-inactive;2-active),overall class of the compound,1
same,Compound Activity (1-inactive;2-active),"printed on every cell line row, same value for the compound throughout",1

# Reference: publication PMC4476799, “Englerin A Agonizes the TRPC4/C5 Cation Channels to Inhibit Tumor Cell Line Proliferation” (PLoS ONE, 2015)
